The values that follow come from patent publication US20240165259A1, “BIOORTHOGONAL REACTION SUITABLE FOR CLICK/UNCLICK APPLICATIONS” (DANA-FARBER CANCER INSTITUTE, INC., priority 2021, published 2024).

As usually defined, the IC50 is the midpoint of a concentration-inhibition curve.

Assay [1] is described as follows: Cleavage reaction progress monitoring by 1H NMR spectroscopy. Format: physicochemical. Conditions: 4 mM enamine N-oxide, 10 mM B2(OH)4, 10% DMSO-d6/23% CD3OD/d-PBS, pH 7.4. An excerpt: Diboron reagents and enamine N-oxide structures in hand, the reaction kinetics were characterized and the substrate scope for the cleavage reaction was explored. A series of chromogenic probes 32″, 38″, 39″ featuring a representative series of nitrogen, oxygen, and sulfur-bearing leaving groups were obtained. Each probe was synthesized from cyclooct-2-ynol either by Mitsunobu reaction or carbamoylation with the corresponding p-nitro(thio)phenol or p-nitrophenyl isocyanate followed by hydroamination with N,N-diethylhydroxylamine. The formation of the intended products was verified by ^1H NMR spectroscopy with caffeine as an internal standard (FIG. 29A, FIG. 33, FIG. 34). […] Over the course of 24 h, iminium ion 35″ hydrolyzed to cyclooctenone 36″ and diethylamine 37″. The other substrates reacted analogously with the same quantitative formation of iminium ion 35″ at the initial time point (FIG. 29B). […]
The chromogenic probes that were prepared were intended for stopped flow kinetics experiments using UV-vis spectroscopy; however, the NMR studies precluded the use of one of these compounds for this purpose. […] Since a change in UV absorbance is contingent on p-nitroaniline formation, it could not be used or any analogous carbamate-based chromogenic or fluorogenic outputs as accurate proxies for product release. Instead, a fluorescence polarization assay was employed. […]

For assay [2], the system named is SK-BR-3 HER2+ breast cancer cells. Nature of the assay: Cell viability assay (CellTiter-Glo), SK-BR-3. Format: cell-based. The settings on record: Homo sapiens, SK-BR-3, 72 h, read-out: IC50, cell viability, without diboron. (In ATP-based viability assays light output follows the ATP content of the culture.)
Protocol: Cell viability assay: SK-BR-3 or MDA-MB-231 cell were seeded at a density of 5,000-10,000 cells per well in media [100 μL, RPMI (SK-BR-3) or DMEM (MDA-MB-231) supplemented with 5% heat-inactivated human serum (Sigma), penicillin (100 units/mL), streptomycin (0.1 mg/mL)] in an opaque 96-well plate. PBS (100 μL) was added to the edge wells. The cells were incubated at 37° C. under ambient atmosphere with 5% CO2. […] The plates were incubated at 37° C. with 5% CO2 for 72 h (SK-BR-3) or 96 h (MDA-MB-231). After the plates were equilibrated at room temperature, CellTiter-Glo™ 2.0 reagent (50 μL, Promega™) was added to each well and mixed gently. The plates were incubated at room temperature for 10 min to stabilize the luminescence signal and analyzed by a microplate reader (Clariostar Plus, BMG Labtech) (FIG. 48 and FIG. 49).
Assay [3] relates to MDA-MB-231 HER2− breast cancer cells. Nature of the assay: Cell viability assay (CellTiter-Glo), MDA-MB-231. It is filed as cell-based. The settings on record: Homo sapiens, MDA-MB-231, 96 h, read-out: IC50, cell viability, without diboron. The procedure: SK-BR-3 cells were treated with […]-100 nM trastuzumab-MMAE 61″ in the presence or absence of 50 μM B2pin2, cultured for 72 h, and assayed using the CellTiter-Glo® cell viability assay. The IC50 of the ADC was insensitive to the presence or absence of diboron and recapitulated the IC50 of MMAE alone.
This N-oxide-based drug delivery platform provides a convenient mechanism for loading drugs onto antibodies as well as an appealing alternative to existing methods for the fast and complete release of drug molecules from their carriers.
Cell culture: Cells were cultured in RPMI (SK-BR-3) or DMEM (MDA-MB-231) containing 10% FBS (Sigma), 100 units/mL penicillin, and 0.1 mg/mL streptomycin (Sigma) in a humidified chamber at 37° C. under an ambient atmosphere with 5% CO2. Cells were passaged and dissociated with 0.25% trypsin, 0.1% EDTA in HBSS (Corning). […]
Cell viability assay: SK-BR-3 or MDA-MB-231 cell were seeded at a density of 5,000-10,000 cells per well in media [100 μL, RPMI (SK-BR-3) or DMEM (MDA-MB-231) supplemented with 5% heat-inactivated human serum (Sigma), penicillin (100 units/mL), streptomycin (0.1 mg/mL)] in an opaque 96-well plate. […] The plates were incubated at room temperature for 10 min to stabilize the luminescence signal and analyzed by a microplate reader (Clariostar Plus, BMG Labtech) (FIG. 48 and FIG. 49).

Assay [4] deals with cell surface HaloTag-GFP expressed on HEK293T cells. In words: Live cell labeling experiment (confocal microscopy). It is filed as cell-based. The settings on record: 10 μM 21′, then 10 μM 22′ for 1 hour, fixed. As for the experimental part:
Live cell labeling by hydroamination was explored. HEK293T cells were transiently transfected with a cell surface HaloTag-GFP construct, treated with 10 μM HaloTag linker-conjugated difluoropropargyl ether 21′, washed, and incubated with 10 μM TAMRA-conjugated hydroxylamine 22′ for 1 hour. The cells were then fixed and visualized by confocal microscopy.
Cell Culture: HEK-293T cells were cultured in Dulbecco's Modified Eagle Medium (DMEM, Corning®) containing 10% fetal bovine serum (FBS, Sigma), 100 units/mL penicillin, and 0.1 mg/mL streptomycin (Sigma) in a humidified chamber at 37° C. with 5% CO2. Cells were passaged and dissociated with 0.25% trypsin, 0.1% EDTA in HBSS (Corning®). Cells tested negative for […] by the MycoAlert PLUS Mycoplasma Detection Kit (Lonza) following the manufacturer's protocol.
Preparation for 12-Well Plate: Coverslips (15 mm circle, thickness 0.13-0.17 mm) were acid-washed according to the Cold Spring Harbor protocol (Fischer et al., Cold Spring Harb. Protoc. 2008:pdb.prot4988 (2008)). A coverslip was added to each well in a 12-well plate followed by an aqueous solution of poly-D-lysine (0.1 mg/mL, 30-70 kDa, 800 μL). The plate was gently shaken to distribute the solution evenly, incubated at room temperature for 1 hour, washed using 1 mL of autoclaved deionized water for each well, and dried overnight. […]

Assay [5] is described as follows: Cross reactivity: hydroxylamine under Cu-catalyzed azide-alkyne cycloaddition (CuAAC) conditions. Format: physicochemical. Conditions: alkyne S17, THPTA, CuSO4, sodium ascorbate, PBS pH 7.4, 0-4 hours, HPLC. The procedure:
A solution of N,N-diethylhydroxylamine (0.8 μL, 100 mM in PBS, pH 7.4) was added to this mixture to bring the total volume to 200 μL. The solution was immediately transferred to a clean HPLC vial to monitor the reaction progress and incubated at room temperature in the dark. The reaction was analyzed by HPLC (Pursuit 200 Å C18, 4.6×150 mm, 10 μm particles, 1 mL/min flow rate, eluent: isocratic 0% MeCN/H2O+0.1% TFA (1 minute), gradient 0→100% MeCN/H2O+0.1% TFA (14 minutes), isocratic 100% MeCN/H2O+0.1% TFA (1 minute)) at each time point (0, 1, 2, and 4 hours) and quantified using its absorbance at 280 nm.

A short description of assay [6]: Cross reactivity: hydroxylamine with trans-cyclooctene 19, aldehyde 20, cyclopropene 21, alkyne 22. Format: physicochemical. The procedure:
The reaction mixtures were analyzed by ^1H NMR spectroscopy.

Assay [7] addresses T1, lysozyme-TAMRA conjugate 6″conj (Gallus gallus, UniProt P00698).
T1 construct: purchased
In words: Screening of diboron derivatives 27″-31″ for cleavage of conjugate 6″conj. It is filed as biochemical. The settings on record: PBS, 1 h.
Protocol: The impact of boron ligands on the dissociation reaction was also explored. […] Lysozyme-TAMRA conjugate 6″conj was treated with 5 or 50 μM of each diboron reagent in PBS and analyzed by in-gel fluorescence after 1 h.
A solution of diborons 27″-31″ (0.34 μL, 125 μM or 1.25 mM in DMSO; 5 or 50 μM final concentration) was added to a solution of lysozyme-fluorophore conjugate 6″conj (8 μL, 0.50 μM in PBS, pH 7.4). The reaction mixtures were incubated at room temperature in the dark. After 60 min, each reaction mixture was quenched by adding trimethylamine N-oxide (0.93 uL, 100 mM in H2O; 10 mM final concentration) and diluted with 1.6×SDS sample buffer (14.32 μL). Each solution (10 μL) was loaded onto a 15-well 12% SDS-PAGE gel. The gel was run at room temperature and at 175 V for 50 min. In-gel fluorescence was imaged with a Typhoon™ FLA 9500 (GE) at 532 nm with a photomultiplier tube (PMT) setting of 500 V (FIG. 41).

Assay [8] in a line: Retro-Cope elimination of linear alkynes 1′, 4′, 6′ with N,N-diethylhydroxylamine (Scheme 1). Format: physicochemical. Conditions: with N,N-diethylhydroxylamine (2′). As for the experimental part: The impact of inductively withdrawing halogen and chalcogen substituents at the propargylic and terminal positions of the alkyne were evaluated. Retro-Cope elimination reaction between propargyl ether 1′ and N,N-diethylhydroxylamine (2′) was completed in 18 hours whereas hydroamination of terminal alkyne 4′ was incomplete, even after 10 days. […] The regioselectivities induced by the propargyl and terminal alkyne substituents appeared to be reinforcing.

T1 sequence (P00698 19-147): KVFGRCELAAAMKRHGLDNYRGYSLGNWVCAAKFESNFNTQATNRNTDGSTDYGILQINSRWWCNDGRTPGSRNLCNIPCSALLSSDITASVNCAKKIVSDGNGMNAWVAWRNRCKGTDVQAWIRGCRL

Turning to `CC[N+]([O-])(CC)/C1=C/C(Sc2ccc([N+](=O)[O-])cc2)CCCCC1` (stereo not shown) [38″, (E)-N,N-Diethyl-3-((4-nitrophenyl)thio)cyclooct-1-en-1-amine oxide], in assay [1], the “time to complete reduction / conversion of enamine N-oxide” value is listed as at most 4 min.

As to `CC[C@H](C)[C@@H]([C@@H](CC(=O)N1CCCC1[C@H](OC)[C@@H](C)C(=O)N[C@H](C)[C@@H](O)c1ccccc1)OC)N(C)C(=O)[C@@H](NC(=O)[C@@H](NC)C(C)C)C(C)C` (stereo partly shown) [MMAE, monomethyl auristatin E], the IC50 turned out to be 0.154 nM in assay [2] and 0.75 nM in assay [3].

As to `O=C(NCCOCCOCCCCCCCl)OCCOC(F)(F)C#CCl` [21′, 2-((3-chloro-1,1-difluoroprop-2-yn-1-yl)oxy)ethyl (2-(2-((6-chlorohexyl)oxy)ethoxy)ethyl)carbamate], the “live cell labeling (TAMRA signal)” value in assay [4] is “localized at the cell surface and co-localized with the GFP signal of transfected cells”.

With `CCN(O)CC` [compound 1, N,N-diethylhydroxylamine], the “reaction under CuAAC conditions” value in assay [5] is reported as “No reaction was observed”. In addition, the “reactivity with strained alkenes” value in assay [6] (5 mM hydroxylamine with 5 mM cyclopropene 21 or trans-cyclooctene 19, d3-acetonitrile) is “proved unreactive”. For the same compound, in assay [6] (CD3CN, 1 hour, room temperature, 1H NMR), the “cross-reactivity with 19, 20, 21 or 22” value is given as “No change in the spectra was observed”.

On to `OB(O)B(O)O` [Tetrahydroxydiboron, tetrahydroxydiboron], for which the “cleavage of 6″conj at 5 μM diboron reagent” value in assay [7] is given as “reach completion by 1 h”.

As to `OCCCCCC#CCl` [6′, 7-chlorohept-6-yn-1-ol], in assay [8], the “time to completion of retro-Cope elimination” value was around 24 h.

Regarding `CC[N+]([O-])(CC)/C1=C/C(Oc2ccc([N+](=O)[O-])cc2)CCCCC1` (stereo not shown) [32″, (E)-N,N-Diethyl-3-(4-nitrophenoxy)cyclooct-1-en-1-amine oxide], the “time to complete reduction / conversion of enamine N-oxide” value in assay [1] is listed as at most 4 min.
